For one series, the system named is C. neoformans. The series is described as follows: Experimentally-induced cryptococcal meningitis in rabbits, CSF colony counts. As to conditions: 1 mg AmB/kg daily i.v., Days 11 and 14. Format: in vivo, Cryptococcus neoformans. Here is the method: Four day old cultures of C. neoformans containing 100 μg of chloramphenicol per mL were absorbed on cotton swabs, suspended in 15 mM phosphate-buffered saline, and adjusted to approximately 5×10^7 colony forming units (CFU)/mL. New Zealand White rabbits (2-3 kg) were immunosuppressed with 2.5 mg cortisone acetate administered intramuscularly (i.m.) beginning one day prior to inoculation with C. neoformans (Day 0), and once daily thereafter until study termination. On Day 1 rabbits were sedated with ketamine (100-150 mg) and xylazine (15-25 mg) i.m., and intracisternally inoculated with 0.3 mL of C. neoformans suspension. On Day 4 CSF was collected and plated on agar plates containing chloramphenicol to establish a baseline level for C. neoformans counts (CFU/mL), and drug treatment was then initiated. CSF samples were also withdrawn for C. neoformans counts on Days 7, 11 and 14. The duration of drug treatment was 10 days.
Each group size generally consisted of three to five animals. All treatments were administered via an ear vein, and permeabilizer A-7 was always administered immediately prior to AmB. CSF samples were always withdrawn prior to drug therapy on treatment days.

In the next series the test system is 9L Glioma cells. Briefly: Survival time of rats with brain tumor implants. Type of series: in vivo. The protocol: Male Fischer 344 rats (200-250 g) were anesthetized with ketamine HCL (100 mg/kg) and acepromazine (10 mg/kg). The animals were placed in a stereotaxic device. The head of each animal was shaved and a midline incision was made to expose the skull. A small hole was drilled over the right sensorimotor cortex. A […] cell suspension (250,000 9L Glioma cells) was injected over 5 minutes into the right caudate putamen of each animal and the scalp sutured. Animals were observed daily for signs of failing health. When signs of very poor health were observed (eye hemorrhage or loss of righting reflex) animals were euthanatized and the brains examined for presence of tumor.
The results are shown in Table III as median survival with range.

The subject of the next series is dopamine receptors. As to conditions: rats; 300 μg domperidone with or without 10 μg permeabilizer A-7, one hour before apomorphine 0.75 mg/kg s.c. Here is the method:
Domperidone is a dopamine receptor antagonist used clinically as an anti-emetic by virtue of its action at the area postrema outside the blood-brain barrier.
The activity cages were standard size rat cages with two photocell beams running across the floor of each cage. Any movement of the rat through either of the beams was recorded by a computer. Locomotor activity was measured as the number of beam breaks in a sequence of 10-minute intervals over a two hour period.
The motor activity of the rats was measured in activity cages over 10-minute intervals for up to 2 hours post-apomorphine injection.

Series [1] relates to blood-brain barrier. Briefly: Uptake of radiolabelled substances of different molecular weights into the brain (Table I). The protocol:
The animals were euthanatized 10 minutes after the co-administration and the radioactivity present in brain was measured as described previously for ^14 C sucrose.

The subject of the next series is opiate receptor. The series is described as follows: Tail flick assay, antinociceptive effect of loperamide. Format: in vivo. As to conditions: mice; nalorphine 10 mg/kg i.p. 15 minutes before. For orientation: In hot-plate and tail-flick tests a longer latency is read as antinociception.
The subject of another series is angiotensin II receptors. The series is described as follows: Drinking behavior of rats with angiotensin II analogue. Format: in vivo. As to conditions: 1 μg β-Asp^1 -angiotensin II, 10 μg permeabilizer A-7, with or without 8 μg saralasin i.v., 1 hour. Here is the method: The volume of water consumed by each rat over a 1 hour interval was measured.
The saralasin was given because it is a known angiotensin II receptor antagonist. Again, the volume of water consumed by each rat over a 1 hour interval was measured.

The test system of series [2] is blood-brain barrier. The series is described as follows: Dose response of blood-brain barrier permeabilizers, sucrose uptake studies. Type of series: in vivo. As to conditions: mice; various amounts; FIGS. 3c and 3d.
Experimental: Female Balb/C mice weighing approximately 20 g were used. All solutions were prepared in sterile phosphate-buffered saline. […] In other experiments, mice were euthanitized 10 minutes after the ^14 C sucrose administration. Blood was collected in heparinized tubes and centrifuged to separate plasma from the resulting pellet. Radioactivity in a 100 μl aliquot of plasma was measured by liquid scintillation counting after the addition of 15 ml of Aquasol-2 (Dupont). The brain was removed and homogenized in 2.5 ml of water and 2.5 ml of 1% sodium dodecyl sulfate (SDS). One ml of the homogenate was aliquoted and added to 15 ml of Aquasol-2 for counting. Brain uptake of sucrose was calculated and graphically expressed as percent of injected dose×100. […] Each data point represents the mean ± s.d. from 8 mice.
The next series has as its target T1, bradykinin receptor (Rattus norvegicus, UniProt P25023).
T1 construct: endogenous in cells; host or cells: cultured rat brain microvessel endothelial cells, passages 9 to 12, intact monolayers
T1 sequence (P25023 1-396): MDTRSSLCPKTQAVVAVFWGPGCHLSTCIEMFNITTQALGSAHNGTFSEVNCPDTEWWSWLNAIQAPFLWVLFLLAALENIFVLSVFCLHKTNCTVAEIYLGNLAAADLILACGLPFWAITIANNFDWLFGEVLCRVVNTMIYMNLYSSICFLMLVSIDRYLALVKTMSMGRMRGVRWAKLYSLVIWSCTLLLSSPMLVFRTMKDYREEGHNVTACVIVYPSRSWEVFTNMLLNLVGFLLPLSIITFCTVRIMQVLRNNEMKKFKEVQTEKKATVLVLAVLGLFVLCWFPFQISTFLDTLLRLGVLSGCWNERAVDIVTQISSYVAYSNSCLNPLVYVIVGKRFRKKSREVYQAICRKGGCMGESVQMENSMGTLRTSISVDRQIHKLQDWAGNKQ
Briefly: Displacement of [^3 H]-bradykinin binding on rat brain endothelial cells. As to conditions: no competing peptide; corrected for nonspecific binding.

Setting [3] is: Table IV, additional experiment.

From patent US5686416A, “Increasing blood-brain barrier permeability with permeabilizer peptides” (priority 1993, dated 1997) come the findings set out here.

Experimental for bradykinin receptor: Endothelial cells employed in this study were isolated from individual rat brain microvessels and cultured. For binding studies, cells at passages 9 to 12 were seeded (at a 1:5 split) onto gelatinized 24-well tissue culture dishes. Binding experiments were conducted on day 7 after seeding. […] All subsequent manipulations were performed in the cold room, unless otherwise indicated.
To initiate binding incubations, the buffer was removed from cell layers and replaced with 0.4 mL fresh binding buffer at 4° C. containing [^3 H-pro^2,3 ]-bradykinin ([^3 H]-bradykinin) and competing non-radioactive peptides at concentrations indicated for the individual experiments. Triplicate wells were used for each experimental condition. For later determination of cell number, where indicated, certain wells were covered with binding buffer without radioligand and incubated in parallel with the other samples. […]
The dissociated cells were collected, diluted into 10 mL Isoton diluent, and cell numbers were determined with a Coulter counter. […] The two aliquots were pooled into a single scintillation vial, 10 mL of Hydrofluor scintillation fluid was added and samples were counted for tritium in a scintillation counter. […] Aliquots of each [^3 H]-bradykinin dilution that was added to the cells were counted along with the other samples. […]
Experimental for opiate receptor: Female Nalb/C mice weighing approximately 20 g were used. The tail flick assay was performed using a Tail Flick Apparatus model TF6 (Emdie Instruments, Maidens, Va.). The intensity of the heat source was adjusted daily to yield a reaction time between 2.0 and 3.2 seconds in naive untreated mice. The maximum time of exposure to the heat source allowed was 7.5 seconds. The tail withdrawal reaction time of each mouse was measured 4 times at 10 second intervals immediately prior to intravenous injections of the experimental substances via the tail vein. The last three values were averaged and taken as baseline value (Vo). Another set of four measurements was taken at the following intervals after tail vein injection of the opiate receptor agonist loperamide with and without the other agents: immediately, 5 min, 10 min, 15 min, 30 min, and 60 min. The last three values for each of these time points (V) were averaged. […] The results were expressed as percent of maximum antinociceptive response according to the formula: 100×(V-Vo)/(7.5-Vo).

For the molecule `C[C@@H]1[C@H](O)[C@@H](C)/C=C/C=C/C=C/C=C/C=C/C=C/C=C/[C@H](O[C@@H]2O[C@H](C)[C@@H](O)[C@H](N)[C@@H]2O)C[C@@H]2O[C@](O)(C[C@@H](O)C[C@@H](O)[C@H](O)CC[C@@H](O)C[C@@H](O)CC(=O)O[C@H]1C)C[C@H](O)[C@H]2C(=O)O` [AmB, Amphotericin B], the “CSF C. neoformans counts compared to controls” value in the series on C. neoformans is reported as “significantly lowered”.

As for `N.N.[Cl][Pt][Cl]` [Cisplatin], the “Median Survival” value was 13 days in the series on 9L Glioma cells (Table III, Fischer 344 rats, 9L glioma, i.v. treatment days 5 through 14, cisplatin 200 μg/rat, A-7 50 μg, bradykinin 1 mg) and 15.5 days with 9L Glioma cells (setting [3]). The “Survival, Range” value in the series on 9L Glioma cells (Table III, Fischer 344 rats, 9L glioma, treatment days 5 through 14) lay within 9 to 18 days; in the series on 9L Glioma cells (setting [3]) it was 12 to 18 days.

On to `O=c1[nH]c2ccccc2n1CCCN1CCC(n2c(=O)[nH]c3cc(Cl)ccc32)CC1` [Domperidone], for which, in the series with dopamine receptors, the “effect on motor activity induced by apomorphine” value is listed as “little, if any, effect”.

Consider `OC[C@H]1O[C@@](CO)(O[C@H]2O[C@H](CO)[C@@H](O)[C@H](O)[C@H]2O)[C@@H](O)[C@@H]1O` [^14 C-Sucrose, Sucrose], for which, in the series on blood-brain barrier [1] (mouse, in vivo, iv), the “% Injected Dose, +10 μg A-7” value is listed as 0.165 ± 0.049 % Injected Dose and the “% Injected Dose, Control” value worked out at 0.059 ± 0.014 % Injected Dose.

Regarding `C=CCN1CC[C@]23c4c5ccc(O)c4O[C@H]2[C@@H](O)C=C[C@H]3[C@H]1C5` [nalorphine], in the series on opiate receptor, the “effect of pretreatment on the antinociceptive response to permeabilizer A-7 and loperamide” value is on record as “completely antagonized”.

Consider `CNCC(=O)N[C@@H](CCCN=C(N)N)C(=O)N[C@H](C(=O)N[C@@H](Cc1ccc(O)cc1)C(=O)N[C@H](C(=O)N[C@@H](Cc1cnc[nH]1)C(=O)N1CCC[C@H]1C(=O)N[C@@H](C)C(=O)O)C(C)C)C(C)C` [saralasin], for which the water consumption entry in the series on angiotensin II receptors is listed as “remained within a normal range”.

On to Inulin [^3 H-Inulin], for which the “% Injected Dose, +10 μg A-7” value in the series with blood-brain barrier [1] (mice, brain, labelled molecule i.v. with 10 μg permeabilizer A-7, 10 minutes, mean ± s.d.) was 0.110 ± 0.016 % Injected Dose. Moreover, the “% Injected Dose, Control” value with blood-brain barrier [1] (mice, brain, labelled molecule i.v. with saline, 10 minutes, mean ± s.d.) was 0.075 ± 0.018 % Injected Dose.

Consider [D-Arg^0 ]-A-7 [A-14], for which the “uptake of ^14 C-sucrose into the brain compared with A-7” value in the series with blood-brain barrier [2] was “comparable to A-7”.

Turning to [dehydro Pro^2,7 ]-A-7 [A-9], the “uptake of ^14 C-sucrose into the brain compared with A-7” value in the series with blood-brain barrier [2] is recorded as “comparable to A-7”.

“^3 H-Bovine Serum Albumin: radiolabelled bovine serum albumin, mol. weight 68,000”: in the series with blood-brain barrier [1] (mouse, in vivo, iv), the “% Injected Dose, +10 μg A-7” value came out at 0.209 ± 0.056 % Injected Dose and the “% Injected Dose, Control” value was 0.333 ± 0.098 % Injected Dose.

For the molecule “arginine-proline-proline-glycine-phenylalanine-serine-proline-phenylalanine-arginine [[^3 H]-bradykinin]”, the “Scatchard analysis of [^3 H]-bradykinin binding” value on bradykinin receptor was “two affinity classes of [^3 H]-bradykinin binding site”.

B1: ^3 H-RNase: radiolabelled RNase, mol. weight 12,600 (protein, UniProt P61823 27-150, looked up)
Ribonuclease pancreatic: KETAAAKFERQHMDSSTSAASSSNYCNQMMKSRNLTKDRCKPVNTFVHESLADVQAVCSQKNVACKNGQTNCYQSYSTMSITDCRETGSSKYPNCAYKTTQANKHIIVACEGNPYVPVHFDASV
modifications: tritium label
Take B1: in the series with blood-brain barrier [1] (mouse, in vivo, iv), the “% Injected Dose, +10 μg A-7” value was 0.117 ± 0.030 % Injected Dose and the “% Injected Dose, Control” value came out at 0.123 ± 0.039 % Injected Dose.

B2: ^3 H-Ovalbumin: radiolabelled ovalbumin, mol. weight 46,000 (protein, UniProt P01012 2-386, looked up)
Ovalbumin: GSIGAASMEFCFDVFKELKVHHANENIFYCPIAIMSALAMVYLGAKDSTRTQINKVVRFDKLPGFGDSIEAQCGTSVNVHSSLRDILNQITKPNDVYSFSLASRLYAEERYPILPEYLQCVKELYRGGLEPINFQTAADQARELINSWVESQTNGIIRNVLQPSSVDSQTAMVLVNAIVFKGLWEKAFKDEDTQAMPFRVTEQESKPVQMMYQIGLFRVASMASEKMKILELPFASGTMSMLVLLPDEVSGLEQLESIINFEKLTEWTSSNVMEERKIKVYLPRMKMEEKYNLTSVLMAMGITDVFSSSANLSGISSAESLKISQAVHAAHAEINEAGREVVGSAEAGVDAASVSEEFRADHPFLFCIKHIATNAVLFFGRCVSP
modifications: tritium label
For B2, in the series on blood-brain barrier [1] (mouse, in vivo, iv), the “% Injected Dose, +10 μg A-7” value was 0.093 ± 0.017 % Injected Dose and the “% Injected Dose, Control” value worked out at 0.079 ± 0.016 % Injected Dose.
